In patent US4108991A, “N-aminosulfenyl derivatives of aldicarb” (priority 1976, dated 1978):
Like-named read-outs stand apart in the source and are kept apart here.

Key:
Southern armyworm [1] = assay: Initial contact activity, leaf dip, southern armyworm; format: in vivo, Spodoptera eridania [Cram.]; settings: for mortality at 156 ppm / mortality at 312 ppm / mortality at 625 ppm / mortality at 1250 ppm: Spodoptera eridania, foliar, 48 h
Method: (§1) Initial Contact Activity: One half gram of test compound was dissolved in 40 ml of acetone and this solution was dispersed in 360 ml of water containing one drop of isooctylphenyl polyethoxyethanol. Aliquots of this solution, which corresponds to 1250 ppm of active ingredient, were diluted with an appropriate amount of water to provide solutions containing various concentrations of active ingredient. Test organisms and techniques were as follows: The activity against the Mexican bean beetle (Epilachna varivestis Muls.) and the southern armyworm (Spodoptera eridania [Cram.]) was evaluated by dipping the leaves of pinto bean plants into the test solution and infesting the leaves with the appropriate immature-form insects when the foiliage had dried; the activity against the pea aphid (Acyrthosiphon pisum [Harris]) was evaluated on broad bean plants whose leaves were dipped before infestation with adult aphids; the activity against two-sotted spider mites (Tetranychus urticae Koch) was evaluated on pinto bean plants whose leaves were dipped after infestation with adult mites; the activity against the milkweed bug (Oncopeltus fasciatus [Dallas]), and the plum curculio (Conotrachelus nenuphar [Herbst]) was evaluated by spraying the test solutions into glass dishes or jars containing the adult insects; the activity against the confused flour beetle (Tribolium confusum duVal) was evaluated by introducing the insects into glass dishes which had been previously sprayed with test solution and allowed to dry. All organisms in the test were maintained in a holding room at 80° F and 50% relative humidity for an exposure period of 48 hours. At the end of this time, the dead and living insects or mites were counted, and the percent kill was calculated.

Southern armyworm [2] = assay: Residual (7-day) contact activity, southern armyworm; format: in vivo, Spodoptera eridania [Cram.]; settings: Spodoptera eridania, 168 h; for mortality at 625 ppm: read-out: Percent Kill, residual 7-day, AW, 625 PPM
Method: as §1
(§2) Residual Contact Activity: The residual contact activity of the compounds was determined on the same organisms using the techniques described above, except that in each case the treated surface was allowed to dry and was exposed to normal light and air for seven days before introduction of the mites or insects.

Two-spotted spider mite = assay: Initial contact activity, leaf dip, two-spotted spider mite; format: in vivo, Tetranychus urticae Koch; settings: for mortality at 5 ppm / mortality at 10 ppm / mortality at 20 ppm / mortality at 39 ppm / mortality at 156 ppm / mortality at 1250 ppm: Tetranychus urticae, foliar, 48 h; for Percent Kill: 2880 min
Method: as §1

Plum curculio = assay: Residual (7-day) contact activity, plum curculio; format: in vivo, Conotrachelus nenuphar [Herbst]; settings: for mortality at 156 ppm / mortality at 312 ppm / mortality at 625 ppm / mortality at 1250 ppm: Conotrachelus nenuphar, 168 h, read-out: Percent Kill
Method: as §1, §2

Confused flour beetle = assay: Residual (7-day) contact activity, confused flour beetle; format: in vivo, Tribolium confusum duVal; settings: Tribolium confusum, 168 h, read-out: Percent Kill
Method: as §1, §2

Pea aphid = assay: Residual (7-day) contact activity, pea aphid; format: in vivo, Acyrthosiphon pisum [Harris]; settings: Acyrthosiphon pisum, 168 h; for mortality at 625 ppm: read-out: Percent Kill, residual 7-day, PA, 625 PPM
Method: as §1, §2

Granary Weevil = assay: Initial contact activity, granary weevil; format: in vivo; settings: for mortality at 20 ppm / mortality at 39 ppm / mortality at 156 ppm / mortality at 312 ppm / mortality at 1250 ppm: Sitophilus granarius, 48 h
insects and mites = assay: Systemic activity (soil-watering), insects and mites in general; format: in vivo; settings: in words
Method: Systemic Activity: Systemic activity was measured using a soil-watering technique. Test organisms were Mexican bean beetle, southern armyworm, pea aphid, and mites on plants as described above in this Example. With appropriate precautions to avoid contact of the solution with the test plant surfaces, 25 ml of a test solution, prepared as above to contain the desired amount of active ingredient, were poured evenly over the surface of the soil in which the plant was growing. The treated plants were maintained under normal growing conditions for three days to permit translocation of the toxicant, after which the leaves were infested. Two days after infestation, counts of living and dead insects were made.

[3] = initial, AW, 156 PPM, 48 hours, read-out: Percent Kill
[4] = initial, AW, 312 PPM, 48 hours, read-out: Percent Kill
[5] = initial, AW, 625 PPM, 48 hours, read-out: Percent Kill
[6] = initial, AW, 48 hours, read-out: Percent Kill
[7] = residual 7-day, AW, 312 PPM, read-out: Percent Kill
[8] = residual 7-day, AW, read-out: Percent Kill
[9] = initial, SM, 10 PPM, 48 hours, read-out: Percent Kill
[10] = initial, SM, 39 PPM, 48 hours, read-out: Percent Kill
[11] = initial, SM, 156 PPM, 48 hours, read-out: Percent Kill
[12] = initial, SM, 1250 PPM, 48 hours, read-out: Percent Kill
[13] = residual 7-day, PA, 156 PPM, read-out: Percent Kill
[14] = residual 7-day, PA, read-out: Percent Kill
[15] = residual 7-day, PA, 1250 PPM, read-out: Percent Kill
[16] = initial, GW, 156 PPM, 48 hours, read-out: Percent Kill
[17] = initial, GW, 312 PPM, 48 hours, read-out: Percent Kill
[18] = initial, GW, 1250 PPM, 48 hours, read-out: Percent Kill

CNC(=O)ON=CC(C)(C)SC [Aldicarb, 2-methyl-2-(methylthio)propanal O-(methylcarbamoyl)oxime]
mortality at 156 ppm (Southern armyworm [1]; read-out: Percent Kill, initial, AW, 156 PPM, 48 hours): 23%
mortality at 312 ppm (Southern armyworm [1]; read-out: Percent Kill, initial, AW, 312 PPM, 48 hours): 0%
mortality at 625 ppm (Southern armyworm [1]; read-out: Percent Kill, initial, AW, 625 PPM, 48 hours): 12%
Percent Kill (Southern armyworm [1]; initial, AW, 312 PPM, 48 hours): 0%
Percent Kill (Southern armyworm [1]; initial, AW, 625 PPM, 48 hours, 2880 min): 15%
mortality at 312 ppm (Southern armyworm [2]; read-out: Percent Kill, residual 7-day, AW, 312 PPM): 0%
mortality at 625 ppm (Southern armyworm [2]): 0%
mortality at 5 ppm (Two-spotted spider mite; read-out: Percent Kill, initial, SM, 5 PPM, 48 hours): 21%
mortality at 10 ppm (Two-spotted spider mite; read-out: Percent Kill, initial, SM, 10 PPM, 48 hours): 88%
mortality at 20 ppm (Two-spotted spider mite; read-out: Percent Kill, initial, SM, 20 PPM, 48 hours): 100%
mortality at 39 ppm (Two-spotted spider mite; read-out: Percent Kill, initial, SM, 39 PPM, 48 hours): 100%
mortality at 156 ppm (Two-spotted spider mite; read-out: Percent Kill, initial, SM, 156 PPM, 48 hours): 100%
mortality at 1250 ppm (Two-spotted spider mite; read-out: Percent Kill, initial, SM, 1250 PPM, 48 hours): 100%
Percent Kill (Two-spotted spider mite; initial, SM, 10 PPM, 48 hours): 100%
Percent Kill (Two-spotted spider mite; initial, SM, 1250 PPM, 48 hours): 95%
mortality at 156 ppm (Plum curculio): 4.8%
mortality at 312 ppm (Plum curculio): 32%
mortality at 625 ppm (Plum curculio): 0%
mortality at 1250 ppm (Plum curculio): 0%
Percent Kill (Plum curculio; residual 7-day, PC, 1250 PPM): 0%
mortality at 312 ppm (Confused flour beetle): 0%
mortality at 1250 ppm (Confused flour beetle): 0%
mortality at 156 ppm (Pea aphid; read-out: Percent Kill, residual 7-day, PA, 156 PPM): 0%
mortality at 625 ppm (Pea aphid): 10%
mortality at 1250 ppm (Pea aphid; read-out: Percent Kill, residual 7-day, PA, 1250 PPM): 100%
mortality at 20 ppm (Granary Weevil; read-out: Percent Kill, initial, GW, 20 PPM, 48 hours): 20%
mortality at 39 ppm (Granary Weevil; read-out: Percent Kill, initial, GW, 39 PPM, 48 hours): 40%
mortality at 156 ppm (Granary Weevil; read-out: Percent Kill, initial, GW, 156 PPM, 48 hours): 100%
mortality at 312 ppm (Granary Weevil; read-out: Percent Kill, initial, GW, 312 PPM, 48 hours): 100%
mortality at 1250 ppm (Granary Weevil; read-out: Percent Kill, initial, GW, 1250 PPM, 48 hours): 100%
Percent Kill (Granary Weevil; initial, GW, 156 PPM, 48 hours, 2880 min): 97.5%

CSC(C)(C)C=NOC(=O)N(C)SN(C)Cc1ccccc1 [Example I, 2-methyl-2-(methylthio)propanol O-[(N-benzyl-N-methylaminosulfenyl)(methyl)carbamoyl]oxime]
mortality at 156 ppm (Southern armyworm [1]; [3]): 0%
mortality at 312 ppm (Southern armyworm [1]; [4]): 24%
mortality at 625 ppm (Southern armyworm [1]; [5]): 25%
mortality at 1250 ppm (Southern armyworm [1]; [6]): 33%
mortality at 312 ppm (Southern armyworm [2]; [7]): 0%
mortality at 1250 ppm (Southern armyworm [2]; [8]): 91%
mortality at 10 ppm (Two-spotted spider mite; [9]): 96%
mortality at 39 ppm (Two-spotted spider mite; [10]): 98%
mortality at 156 ppm (Two-spotted spider mite; [11]): 100%
mortality at 1250 ppm (Two-spotted spider mite; [12]): 100%
mortality at 156 ppm (Plum curculio; residual 7-day, PC, 156 PPM): 23%
mortality at 312 ppm (Plum curculio; residual 7-day, PC, 312 PPM): 43%
mortality at 1250 ppm (Plum curculio; residual 7-day, PC, 1250 PPM): 20%
mortality at 312 ppm (Confused flour beetle; residual 7-day, FB, 312 PPM): 0%
mortality at 1250 ppm (Confused flour beetle; residual 7-day, FB, 1250 PPM): 2.6%
mortality at 156 ppm (Pea aphid; [13]): 0%
mortality at 312 ppm (Pea aphid; [14]): 6.3%
mortality at 1250 ppm (Pea aphid; [15]): 100%
mortality at 156 ppm (Granary Weevil; [16]): 100%
mortality at 312 ppm (Granary Weevil; [17]): 100%
mortality at 1250 ppm (Granary Weevil; [18]): 100%

CSC(C)(C)C=NOC(=O)N(C)SN1CCOCC1 [Example II, 2-methyl-2-(methylthio)propanol O-[(N-methyl-N-morpholinosulfenyl)carbamoyl]oxime]
mortality at 156 ppm (Southern armyworm [1]; [3]): 0%
mortality at 312 ppm (Southern armyworm [1]; [4]): 0%
mortality at 625 ppm (Southern armyworm [1]; [5]): 70%
mortality at 1250 ppm (Southern armyworm [1]; [6]): 100%
mortality at 312 ppm (Southern armyworm [2]; [7]): 64%
mortality at 1250 ppm (Southern armyworm [2]; [8]): 55%
mortality at 10 ppm (Two-spotted spider mite; [9]): 100%
mortality at 39 ppm (Two-spotted spider mite; [10]): 100%
mortality at 156 ppm (Two-spotted spider mite; [11]): 100%
mortality at 1250 ppm (Two-spotted spider mite; [12]): 100%
mortality at 156 ppm (Plum curculio; residual 7-day, PC, 156 PPM): 10%
mortality at 312 ppm (Plum curculio; residual 7-day, PC, 312 PPM): 5%
mortality at 1250 ppm (Plum curculio; residual 7-day, PC, 1250 PPM): 37%
mortality at 312 ppm (Confused flour beetle; residual 7-day, FB, 312 PPM): 0%
mortality at 1250 ppm (Confused flour beetle; residual 7-day, FB, 1250 PPM): 2.5%
mortality at 156 ppm (Pea aphid; [13]): 0%
mortality at 312 ppm (Pea aphid; [14]): 0%
mortality at 1250 ppm (Pea aphid; [15]): 93%
mortality at 156 ppm (Granary Weevil; [16]): 100%
mortality at 312 ppm (Granary Weevil; [17]): 100%
mortality at 1250 ppm (Granary Weevil; [18]): 100%

CCCCN(CCCC)SN(C)C(=O)ON=CC(C)(C)SC [Example III, 2-methyl-2-(methylthio)propanal O-[(dibutylaminosulfenyl)(methyl)carbamoyl]oxime]
mortality at 156 ppm (Southern armyworm [1]; [3]): 0%
mortality at 312 ppm (Southern armyworm [1]; [4]): 0%
mortality at 625 ppm (Southern armyworm [1]; [5]): 0%
mortality at 1250 ppm (Southern armyworm [1]; [6]): 20%
mortality at 312 ppm (Southern armyworm [2]; [7]): 0%
mortality at 1250 ppm (Southern armyworm [2]; [8]): 0%
mortality at 10 ppm (Two-spotted spider mite; [9]): 98%
mortality at 39 ppm (Two-spotted spider mite; [10]): 89%
mortality at 156 ppm (Two-spotted spider mite; [11]): 100%
mortality at 1250 ppm (Two-spotted spider mite; [12]): 100%
mortality at 156 ppm (Plum curculio; residual 7-day, PC, 156 PPM): 5%
mortality at 312 ppm (Plum curculio; residual 7-day, PC, 312 PPM): 9.5%
mortality at 1250 ppm (Plum curculio; residual 7-day, PC, 1250 PPM): 5%
mortality at 312 ppm (Confused flour beetle; residual 7-day, FB, 312 PPM): 0%
mortality at 1250 ppm (Confused flour beetle; residual 7-day, FB, 1250 PPM): 0%
mortality at 156 ppm (Pea aphid; [13]): 0%
mortality at 312 ppm (Pea aphid; [14]): 0%
mortality at 1250 ppm (Pea aphid; [15]): 0%
mortality at 156 ppm (Granary Weevil; [16]): 100%
mortality at 312 ppm (Granary Weevil; [17]): 100%
mortality at 1250 ppm (Granary Weevil; [18]): 100%

CSC(C)(C)C=NOC(=O)N(C)SN(C)C [Example IV, 2-Methyl-2-(methylthio)propanal O-[(dimethylaminosulfenyl)-(methyl)carbamoyl]oxime]
mortality at 156 ppm (Southern armyworm [1]; [3]): 0%
mortality at 312 ppm (Southern armyworm [1]; [4]): 0%
mortality at 625 ppm (Southern armyworm [1]; [5]): 0%
mortality at 1250 ppm (Southern armyworm [1]; [6]): 12%
mortality at 625 ppm (Southern armyworm [2]): 0%
mortality at 1250 ppm (Southern armyworm [2]; [8]): 20%
mortality at 5 ppm (Two-spotted spider mite; initial, SM, 5 PPM, 48 hours, read-out: Percent Kill): 17%
mortality at 10 ppm (Two-spotted spider mite; [9]): 36%
mortality at 20 ppm (Two-spotted spider mite; initial, SM, 20 PPM, 48 hours, read-out: Percent Kill): 83%
mortality at 39 ppm (Two-spotted spider mite; [10]): 100%
mortality at 156 ppm (Two-spotted spider mite; [11]): 0%
mortality at 1250 ppm (Two-spotted spider mite; [12]): 100%
mortality at 625 ppm (Plum curculio): 0%
mortality at 1250 ppm (Plum curculio; residual 7-day, PC, 1250 PPM): 0%
mortality at 625 ppm (Pea aphid): 5%
mortality at 312 ppm (Pea aphid; [14]): 10%
mortality at 1250 ppm (Pea aphid; [15]): 5%
mortality at 20 ppm (Granary Weevil; initial, GW, 20 PPM, 48 hours, read-out: Percent Kill): 0%
mortality at 39 ppm (Granary Weevil; initial, GW, 39 PPM, 48 hours, read-out: Percent Kill): 5%
mortality at 156 ppm (Granary Weevil; [16]): 50%
mortality at 1250 ppm (Granary Weevil; [18]): 100%
systemic activity compared with aldicarb (insects and mites): substantially the same as aldicarb
